Read-outs that look alike come from different tables or passages of the source.

One test deals with HaVg1 gene expression. The conditions noted are these: hepatopancreas explant, cited from earlier work.
In test [1] the test system is expression of vitellogenin. The conditions noted are these: red crab; cited from earlier work.
The subject of the next test is gonad maturation. Nature of the test: Example 2: FA injection into female shrimp, gonadosomatic index. In kind it is in vivo. The conditions noted are these: FA 1 μg/g of body weight, day 6. As to the method:
Farnesoic acid (FA) is known to be able to stimulate vitellogenin synthesis in crab, shrimp and lobster. Stock of FA is prepared in ultra-pure mineral oil and female shrimp will be injected with FA.
Fifty female shrimp are injected with FA through the arthropodial membrane (e.g. at 1 μg/g of body weight) 1 day after they molt. After injection, the shrimp is returned to the culture tank for culture. A group of 10 shrimps are randomly selected at a 24-hour interval. 50 μl of hemolymph sample will be taken from the shrimps for analyzing the vitellogenin level by ELISA. On day 6, all the shrimps will be sacrificed and their ovary will be weighted for estimating the gonadosomatic index (GSI), which is the ratio of ovary weight to total body weight. A control group is also setup in which the shrimps are injected with the same volume of mineral oil without any FA. Shrimps injected with FA should have a higher ovary weight to total shrimp weight than the control.

Turning to `CC(C)(O)CC[C@@H](O)[C@](C)(O)[C@H]1CC[C@@]2(O)C3=CC(=O)[C@@H]4C[C@@H](O)[C@@H](O)C[C@]4(C)[C@H]3CC[C@]12C` [20E, 20-hydroxyecdysone], in the test with HaVg1 gene expression (0.7 μM 20E), the “increase in HaVg1 gene expression” value is given as 2.2 fold.

Take `CC(C)=CCCC(C)=CCCC(C)=CC(=O)O` [FA, farnesoic acid]: in test [1], the expression of vitellogenin result was “stimulate”. For the same compound, the “increase in HaVg1 gene expression” value in the test with HaVg1 gene expression (4.2 μM FA) is given as 2 fold. Moreover, in the test with gonad maturation, the “ovary weight to total shrimp weight (GSI) versus control” value is on record as “higher”.

These data come from patent US20160346356A1, “USE OF RNA INTERFERENCE, FARNESOIC ACID AND RECOMBINANT PROTEIN APPROACH TO INDUCE GONAD MATURATION IN CRUSTACEAN SPECIES” (priority 2013, published 2016).
